# Measurements from US20120196766A1, “Therapeutic Use of Farnesyltransferase Inhibitors and Methods of Monitoring the Efficacy Thereof” (priority 2004, published 2012).
# Read-outs that look alike come from different tables or passages of the source.
# Legend:
# [1] = test system: THP-1 cells; assay: LPS-induced cytokine, chemokine and MMP-9 secretion by THP-1 cells (ELISA); assay type: cell-based, Human
# Experimental: THP-1 cells were cultured in RPMI1640 medium, supplemented with 10% FBS/100 units/ml Penicillin/10 μg/ml Streptomycin at 37° C., under 5% CO2. […] For the untreated control group (no LPS, no compound) and LPS alone group, equivalent volumes of DMSO were added to the medium. Cells were cultured at 37° C. and pellets were collected at 0 hr, 1 hr, 3 hr, 6 hr, 12 hr & 24 hr. Cell pellets were stored at −80° C. if RNA isolation was not conducted immediately. For experiments to study cytokine secretion in culture supernatants, THP-1 cells were washed twice with PBS, resuspended at 3.4×10^5/ml and cultured in 96-well plates at 250 μL, per well at 37° C. […] Supernatants were collected at different time points as indicated in the figures and were kept at ≦−20° C. until analysis of cytokine production.
# (§1) Human IL-6, IL18, IL1β, MCP-1, MMP-9, and mouse IL-6, IL18, TNFα, MCP-1 and IL-1β were measured with ELISA kits (R&D Systems) according to the manufacturer's instructions.
# (§2) Samples were tested for cytokines using the Bio-plex cytokine assay kit (Bio-Rad Laboratories, Inc.) according to the manufacturer's instructions. Briefly, 50 μL anti-cytokine antibody conjugated beads were added to wells of a filter plate pre-equilibrated with assay buffer. The beads were washed, then 50 μL of undiluted cell culture supernatant or 4-fold diluted plasma samples were added and incubated for 2 hours. Biotinylated anti-cytokine antibody (25 μL) was added to each well and the plate was incubated with shaking for 1.5 hours. Streptavidin-PE (50 μL) was added to each well and the plate was incubated with shaking for 45 min. between incubations, wells were washed 3 times with 100 μL wash buffer and unbound analytes were filtered using a vacuum manifold. Following the last wash step, 125 μL of assay buffer was added to each well and the plate was placed on a shaker for 10 min. The plate was read on a Luminex^100 instrument (Luminex Corporation, Austin, Tex.) according to the manufacturer's instructions. The concentration of cytokine was determined from a standard curve assayed at the same time.
# [2] = test system: THP-1 cells; assay: Western blot analysis of LPS, TNF-α and IL-1α induced signaling in THP-1 cells; assay type: cell-based, Human
# Experimental: THP-1 cells in 0.5% FBS/RPMI were pre-treated with or without tipifarnib for 18 hours, and subsequently stimulated with LPS (100 ng/ml), TNF-α (10 ng/ml) or IL-1α (5 ng/ml) for 30 minutes. Cells were harvested, washed three times in ice-cold PBS, and lysed in lysis buffer (20 mM Tris (pH 7.5), 150 mM NaCl, 1 mM EDTA, 1 mM EGTA, 1% Triton X-100, 2.5 mM sodium pyrophosphate, 1 mM ([…], 1 mM Na3VO4, 1 μg/ml Leupeptin, 1 mM PMSF). Cell lysates from each sample were mixed with an equal amount of 2× SDS-PAGE sample buffer (Invitrogen), and proteins were separated by electrophoresis in Tris-glycine 10-20% gradient gels (Novex), and transferred to nitrocellulose membranes (PROTRAN; Schleicher & Schuell). The membranes were blocked with 3% BSA in PBS-0.05% Tween-20, and sequentially incubated with primary antibodies and HRP-conjugated secondary antibodies (anti-rabbit IgG or anti-mouse IgG and IgM; PIERCE), followed by ECL detection (Amersham Biosciences). The primary antibodies used were rabbit polyclonal anti-IκBa, and -p38 (Santa Cruz), mouse monoclonal anti-H-Ras (Chemicon), mouse monoclonal anti-phospho-p38 and rabbit polyclonal anti-phospho-Erk (Cell Signaling Technology).
# [3] = test system: NF-κB-LH transfected HEK293 cells; assay: NF-κB reporter gene assay; assay type: cell-based; details: tipifarnib 2 or 5 μM for 18 hours, TNF-α 10 ng/ml for 4 hours
# Experimental: HEK293 cells were transfected with the NF-κB-LH plasmid (Biomyx) using Lipofectamine 2000, and stable clones were selected by culture in hygromycin (176 μg/ml). The resulting NF-κB-LH-transfected cells were seeded in DMEM/10% FCS in 96-well plates for use in luciferase reporter assays. On the following day, cells were treated with tipifarnib for 18 hours, then stimulated with TNF-α (10 ng/ml) for 4 hours, after which NF-κB activity was measured using the Steady-Glo® luciferase reporter assay system (Promega). NF-κB activation was calculated as the fold-induction by TNF-α over unstimulated control samples.
# [4] = cited from earlier work
# [5] = test system: collagen-induced arthritis; details: WO 00/01386; cited from earlier work
# [6] = test system: dextran sodium sulphate-induced colitis; details: WO 02/43733; cited from earlier work
# [7] = cited from earlier work; remark: listed apart in the source
# [8] = test system: BALB/c mice; assay: LPS-induced cytokine production in vivo (murine model of LPS-induced inflammation); details: for inhibition at 50 mg/kg: Mus musculus; for MCP-1 production: tipifarnib
# Experimental: The experiments were performed on female BALB/c mice (6-7 week old; Charles River Laboratories, Inc. MA). […] The control mice received the vehicle (20% cyclodextran) only. 20 μg LPS (Sigma), diluted in PBS, was injected into each mouse intraperitoneally. Blood samples were collected either by eye bleeding or cardiac puncture at 1 and 2 hours after LPS injection in one experiment, and at 2 and 3 hours after LPS injection in a second experiment. Plasma samples were collected by centrifugation, and stored at ≦−20° C. before being tested for cytokines using individual ELISA kits or Luminex analysis (see below).
# as §1, §2
# [9] = second experiment, 3 hours (results not shown)
smiles,measurement,setting,value
"Cn1cncc1C(N)(c1ccc(Cl)cc1)c1ccc2c(c1)c(-c1cccc(Cl)c1)cc(=O)n2C (single isomer, unassigned; (+)) [tipifarnib, (+)-6-[amino(4-chlorophenyl)(1-methyl-1H-imidazol-5-yl)methyl]-4-(3-chlorophenyl)-1-methyl-2(1H)-quinolinone]","LPS-induced TNF-α production, second phase of induction",[1]; after 22 h up to 48 hours,dose-dependent inhibition
same,"LPS-induced TNF-α production, initial peak",[1]; between 5 and 10 hours,unaffected
same,LPS-induced IL-8 production,"[1]; simvastatin 5 and 10 μM or tipifarnib 2 and 5 μM, 22, 30 and 48 hours","no significant inhibition of IL-8 production, except for 5 μM at 22 hours"
same,LPS-induced MMP-9 secretion,"[1]; simvastatin 5 and 10 μM or tipifarnib 2 and 5 μM, 30 and 48 hours",dose-dependently inhibited
same,extent of inhibition of MCP-1 secretion compared with 10 μM simvastatin,[1]; tipifarnib 2 μM,much greater
same,"LPS-induced TNF-α production, second phase of induction",[1]; tipifarnib 5 μM,totally inhibited
same,IL-1β secretion,[1]; tipifarnib 2 and 5 μM,dose-dependent inhibition
same,inhibition of IL-6 release,[1]; tipifarnib 2 and 5 μM,inhibition was observed at all time points
same,MCP-1 secretion,"[1]; tipifarnib 2 and 5 μM, up to 48 hours",dose-dependent inhibition
same,IκB degradation induced by IL-1α,[2]; 2 μM tipifarnib for 18 hours,no inhibition
same,IκB degradation induced by TNF-α,[2]; 2 μM tipifarnib for 18 hours,no inhibition
same,LPS-induced IκB degradation,[2]; 2 μM tipifarnib for 18 hours,significantly inhibited
same,LPS-induced p38 phosphorylation,[2]; 2 μM tipifarnib for 18 hours,partially reduced
same,P38 protein expression,[2]; 2 μM tipifarnib for 18 hours,not affected
same,TNF-α induced p38 phosphorylation,[2]; 2 μM tipifarnib for 18 hours,No significant inhibition
same,H-Ras farnesylation,"[2]; tipifarnib pre-treatment, all treatment groups",partially inhibited
same,ERK phosphorylation,"[2]; tipifarnib pre-treatment, control and stimulated cells",reduced
same,TNF-α induced NF-κB activity,[3],not inhibited
same,protein binding,[4],highly protein-bound
same,disease scores,[5],reduction of disease scores
same,disease scores,[6],reduction of disease scores
same,plasma levels,"[7]; at 300 mg twice a day (Karp, Lancet et al. 2001)",approximately 2 μM
same,maximum tolerated dose,[7]; in a number of studies (Head and Johnston 2003),300 mg twice a day
same,LPS-induced TNF-α production,"[8]; 50 mg/kg oral 24, 17 and 1 hour before LPS 20 μg i.p., plasma at 1 and 2 hours",highly significant inhibition
same,inhibition at 50 mg/kg,"[8]; 50 mg/kg oral before LPS, 2 hours, first experiment, read-out: inhibition of MIP-1α production",~50%
same,inhibition at 50 mg/kg,"[8]; tipifarnib 50 mg/kg oral before LPS, after 3 hours, read-out: inhibition of IL-6 production",~50%
same,LPS-induced IL-8,[8]; results not shown,No effects
same,LPS-induced RANTES,[8]; results not shown,No effects
same,IL12-p40 induction by LPS,[8]; [9],inhibited
same,IL12-p70 induction by LPS,[8]; [9],inhibited
same,IL-1β production,"[8]; tipifarnib 50 mg/kg oral before LPS, after 3 hours",almost complete inhibition
same,MCP-1 production,[8]; 2 hours,significant inhibition
same,MCP-1 production,[8]; 3 hours,a decrease that did not reach statistical significance
